US10752900B2, “Oligonucleotides for modulating gene expression and uses thereof” (BIOGENERA S.P.A., priority 2012, dated 2020)

How the values were obtained:
[1] = system: MYCN gene; test: QT-PCR, MYCN mRNA in H69 cells; format: cell-based, human; details: Table 6
Method: (§1) For the purpose of assessing the ability of the oligonucleotides of the present invention to modulate the expression of the target genes, their ability to reduce the quantity of messenger RNA was analyzed using the Real-Time PCR technique.
(§2) For this purpose, use was made of 24-well plates, which were seeded with 5.0×10^4 cells with 0.3 ml of OPTI-MEM (GIBCO BRL) medium, 4% FBS and 2 mM L-glutammine (experiments in triplicate) per well.
(§3) The cells were incubated for 24 hours at 37° C., in an atmosphere containing 5% CO2 to permit adherence to the base of the wells.
(§4) For each well, the oligonucleotides were analyzed at the following final concentrations: • the antisense oligonucleotides siRNA and siRNA gapmer (i.e. the oligonucleotides containing one or more monomers of chemically modified nucleic acids at the 3′ or 5′ end, while in the central portion they have monomers of nucleic acids that have not been modified or have been modified at the level of the phosphodiester bond as a phosphorothioate bond) were used at 200 nM; • the antisense oligonucleotides containing phosphorothioate DNA monomers, the RNA antigene oligonucleotides (agRNA) and the oligonucleotides containing DNA monomers and LNA monomers were used at 10 μM; • the morpholino oligonucleotides were used at a concentration of 1 μM, and • the PNA oligonucleotides were administered at a concentration of 1 μM.
(§5) The cells were treated with the oligonucleotides, adding FBS up to 4% 6 hours after administration of the same. After 24 hours the total RNA was extracted from each well and purified using the RNeasy Mini Kit (QIAGEN).
(§6) Assays were performed on 8 cell lines obtained from 5 different human tumours which are correlated with MYCN expression, i.e.: • as a neuroblastoma model use was made of the cell lines Kelly, IMR-32 (where the MYCN gene is amplified and superexpressed) and SKNBE2c and LAN1 (where the MYCN gene is amplified and superexpressed and the p53 gene is mutated); • as a rabdomiosarcoma model use was made of the cell line RH30, where the MYCN gene is amplified and superexpressed; • as a Wilms' tumour model use was made of the cell line WiT49, where the MYCN gene is amplified and superexpressed; • as a retinoblastoma model use was made of the cell line Y79, where the MYCN gene is amplified and superexpressed; and • as a model of small cell lung cancer use was made of the cell line H69 where the MYCN gene is amplified and superexpressed.
(§7) As a control, use was made of the same cell lines as listed above treated with sterile water instead of oligonucleotides. Each RNA sample was quantified (in duplicate) using a NanoDrop ND-1000 spectrophotometer (NanoDrop Technologies). The first strand of cDNA was produced using the cDNA Synthesis Kit for RT-PCR (Roche). For the cDNA synthesis reaction a total of 1 μg of RNA was used. For the real-time PCR, 10 ng of cDNA in a final volume of 20 μl was used with SYBR Green Master Mix 2× (Applied Biosystems) (3 identical experiments were conducted in triplicate). Two housekeeping genes were used as positive controls: GAPDH and beta-actin (ACTB).
(§8) The conditions of the QT-PCR reaction were: 10 min at 95° C., 20 sec at 95° C., and 30 sec at 60° C., for 50 cycles.
The PNAs having SEQ ID NO: 1-12 were also tested on different cell lines which overexpress MYCN (Kelly, SKNBE2c, RH30, WiT49, WERI-Rb1 1 and H69). The results are shown in Table 6 and confirm the selectivity and specificity of the inhibition effect of the PNAs on the product of protein translation of the MYCN gene.
(§9) The oligonucleotides were tested in vitro (at a concentration of 2.5 μM) to determine their ability to inhibit the transcription of the gene they are directed against by measuring the levels of the gene messenger in cellular models in which the gene of interest is overexpressed. The methods used are the ones described in example 1. […]

[2] = system: WERI-Rb1; test: Cellular proliferation assay (ATP-Lite), WERI-Rb1 cells; format: cell-based; details: Table 6
Method: For the purpose of assessing the gene modulation ability of the oligonucleotides of the present invention, the effect of their administration on cell viability was determined. For this purpose 5×10^3 cells per well were seeded into 96-well cell culture plates (experiments conducted in triplicate) with 100 μl of OPTI-MEM (GIBCO BRL) medium containing 4% FBS and 2 mM of L-glutammine. The PNA oligonucleotides were administered at different concentrations (1 μM-2.5 μM-5 μM-10 μM) in order to observe a dose-effect relationship. The viability of the treated cells was determined at 48, 72, 96 and 168 hours after treatment. Cell viability was assessed by means of an ATP-Lite assay (Luminescence ATP Detection Assay System, PerkinElmer) and is reported as the ratio between the average signal of the treated wells compared to the average value of the wells of untreated control cells. The cells were processed following the instructions provided with the kit. The assays were performed on the same cell lines used to determine the levels of the MYCN gene messenger and listed in the paragraph: Treatments with Oligonucleotides-QT-PCR. The PNAs having SEQ ID NO: 1-12 were also tested on different cell lines which overexpress MYCN (Kelly, SKNBE2c, RH30, […] 1 and H69). The results are shown in Table 6 and confirm the selectivity and specificity of the inhibition effect of the PNAs on the product of protein translation of the MYCN gene.

[3] = system: MYCN gene; test: QT-PCR, MYCN mRNA in Kelly cells; format: cell-based, human; set-up: mRNA Inhibition (%)(Kelly): concentration or dose not given beside the values; details: for mRNA inhibition (%): Table 1, PNA 1 μM, RNA extracted after 24 hours; for Kelly % mRNA: Table 6
Method: as §1, §2, §3
Each oligonucleotide analyzed, except for the PNA oligonucleotides, was incubated beforehand with 2 μl of Lipofectamine 2000 (Invitrogen), with 0.3 mL of serum-free OPTI-MEM (GIBCO BRL) medium.
as §4, §5, §6, §7, §8
As far as the PNA oligonucleotides are concerned, the results regarding their ability to inhibit the transcription of the MYCN gene and proliferation of Kelly cells are shown in Table 1.
as §9

SEQ ID NO: 1: PNA ATGCCGGGCATGATCT against MYCN; subject of patent EP 1618195, control sequence used for comparison (all peptide nucleic acid (PNA)) [reference compound]
H69 % mRNA [1]: 40% | WERI-Rb1 % cell prol. [2]: 82% | mRNA inhibition (%) [3]: 42% | Kelly % mRNA [3]: 48%

SEQ ID NO: 2: PNA antigene oligonucleotide GGGTGGATGCGGGGGG directed against MYCN (PNA backbone, chemistry not fully specified)
H69 % mRNA [1]: 58% | WERI-Rb1 % cell prol. [2]: 79% | mRNA inhibition (%) [3]: 75% | Kelly % mRNA [3]: 75%

SEQ ID NO: 3: PNA antigene oligonucleotide GATGCGGGGGGCTCCT directed against MYCN (PNA backbone, chemistry not fully specified)
H69 % mRNA [1]: 55% | WERI-Rb1 % cell prol. [2]: 78% | mRNA inhibition (%) [3]: 68% | Kelly % mRNA [3]: 68%

SEQ ID NO: 4: PNA antigene oligonucleotide GTCGGCGGGAGGTAAG directed against MYCN (PNA backbone, chemistry not fully specified)
H69 % mRNA [1]: 55% | WERI-Rb1 % cell prol. [2]: 79% | mRNA inhibition (%) [3]: 65% | Kelly % mRNA [3]: 65%

SEQ ID NO: 5: PNA antigene oligonucleotide GCTGGGTGGATGCGGG directed against MYCN (PNA backbone, chemistry not fully specified)
H69 % mRNA [1]: 54% | WERI-Rb1 % cell prol. [2]: 80% | mRNA inhibition (%) [3]: 62% | Kelly % mRNA [3]: 62% | mRNA Inhibition (%)(Kelly) ([3]; Table 7, SEQ ID NO: 5 and guanine-group mutants): 62%

SEQ ID NO: 6: PNA antigene oligonucleotide TGGACGCGCTGGGTGG directed against MYCN (PNA backbone, chemistry not fully specified)
H69 % mRNA [1]: 55% | WERI-Rb1 % cell prol. [2]: 80% | mRNA inhibition (%) [3]: 60% | Kelly % mRNA [3]: 60%

SEQ ID NO: 7: PNA antigene oligonucleotide CGCGCTGGGTGGATGC directed against MYCN (all peptide nucleic acid (PNA))
H69 % mRNA [1]: 55% | WERI-Rb1 % cell prol. [2]: 79% | mRNA inhibition (%) [3]: 58% | Kelly % mRNA [3]: 58%

SEQ ID NO: 8: PNA antigene oligonucleotide GTCTGGACGCGCTGGG directed against MYCN (all peptide nucleic acid (PNA))
H69 % mRNA [1]: 56% | WERI-Rb1 % cell prol. [2]: 78% | mRNA inhibition (%) [3]: 54% | Kelly % mRNA [3]: 54%

SEQ ID NO: 9: PNA antigene oligonucleotide CCCTGCAGTCGGCGGG directed against MYCN (all peptide nucleic acid (PNA))
H69 % mRNA [1]: 50% | WERI-Rb1 % cell prol. [2]: 79% | mRNA inhibition (%) [3]: 51% | Kelly % mRNA [3]: 51%

SEQ ID NO: 10: PNA antigene oligonucleotide CGGCCGCGGGCCGCCA directed against MYCN (PNA backbone, chemistry not fully specified)
H69 % mRNA [1]: 41% | WERI-Rb1 % cell prol. [2]: 85% | mRNA inhibition (%) [3]: 51% | Kelly % mRNA [3]: 51%

SEQ ID NO: 11: PNA antigene oligonucleotide GGGAACTGTGTTGGAG directed against MYCN (PNA backbone, chemistry not fully specified)
H69 % mRNA [1]: 41% | WERI-Rb1 % cell prol. [2]: 84% | mRNA inhibition (%) [3]: 48% | Kelly % mRNA [3]: 50%

SEQ ID NO: 12: PNA antigene oligonucleotide TGTCTGGACGCGCTGG directed against MYCN (all peptide nucleic acid (PNA))
H69 % mRNA [1]: 40% | WERI-Rb1 % cell prol. [2]: 84% | mRNA inhibition (%) [3]: 47% | Kelly % mRNA [3]: 50%
